Here are results for 14 compounds from patent US7414060B2, “Pyridine-2-carboxyamide derivatives” (Hoffmann-La Roche Inc., priority 2005, dated 2008).

This assay deals with T1, human mGlu 5a receptor (Homo sapiens, UniProt P41594).
T1 construct: expressed in transfected cells; host or cells: EBNA cells (transient transfection), cell membrane homogenates
T1 sequence (P41594 21-1180 isoform P41594-2 limits assumed): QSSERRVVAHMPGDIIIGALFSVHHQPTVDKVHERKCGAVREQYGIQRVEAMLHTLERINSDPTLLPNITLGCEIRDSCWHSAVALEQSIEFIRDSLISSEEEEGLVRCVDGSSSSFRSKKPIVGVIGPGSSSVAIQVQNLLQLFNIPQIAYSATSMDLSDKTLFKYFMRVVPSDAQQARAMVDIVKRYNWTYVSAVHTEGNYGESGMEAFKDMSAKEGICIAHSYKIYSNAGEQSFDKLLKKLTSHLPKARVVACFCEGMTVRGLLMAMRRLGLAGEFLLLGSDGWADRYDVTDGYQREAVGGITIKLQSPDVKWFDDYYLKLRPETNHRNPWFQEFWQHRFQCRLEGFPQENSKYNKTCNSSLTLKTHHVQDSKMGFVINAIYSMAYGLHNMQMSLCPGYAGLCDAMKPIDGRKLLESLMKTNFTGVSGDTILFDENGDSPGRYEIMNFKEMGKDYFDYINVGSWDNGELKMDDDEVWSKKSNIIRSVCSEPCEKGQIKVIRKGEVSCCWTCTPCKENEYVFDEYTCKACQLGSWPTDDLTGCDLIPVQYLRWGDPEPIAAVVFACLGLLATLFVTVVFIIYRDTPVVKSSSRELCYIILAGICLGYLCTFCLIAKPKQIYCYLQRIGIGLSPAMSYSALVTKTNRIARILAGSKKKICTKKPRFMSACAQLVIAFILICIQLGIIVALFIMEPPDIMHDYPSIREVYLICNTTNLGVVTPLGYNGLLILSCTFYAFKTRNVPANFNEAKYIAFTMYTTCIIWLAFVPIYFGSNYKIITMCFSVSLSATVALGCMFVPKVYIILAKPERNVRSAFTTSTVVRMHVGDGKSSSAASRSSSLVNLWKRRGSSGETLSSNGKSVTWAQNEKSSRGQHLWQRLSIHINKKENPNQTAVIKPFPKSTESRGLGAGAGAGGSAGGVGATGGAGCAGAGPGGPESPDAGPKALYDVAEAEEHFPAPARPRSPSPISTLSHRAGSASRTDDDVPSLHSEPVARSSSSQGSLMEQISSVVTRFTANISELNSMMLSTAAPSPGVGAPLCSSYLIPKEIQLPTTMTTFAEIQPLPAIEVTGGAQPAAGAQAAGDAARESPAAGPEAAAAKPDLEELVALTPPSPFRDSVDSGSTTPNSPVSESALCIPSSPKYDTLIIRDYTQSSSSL
Briefly: [3H]MPEP competition binding on membranes of EBNA cells transfected with human mGlu 5a receptor. Conditions: competition with [3H]MPEP (2 nM), 1 h at 4° C., human mGlu 5a receptor membranes; read-out: Ki (mGluR5). On the procedure:
The pharmacological activity of the compounds was tested using the following method: For binding experiments, cDNA encoding human mGlu 5a receptor was transiently transfected into EBNA cells using a procedure described by Schlaeger and Christensen [Cytotechnology 15:1-13 (1998)]. Cell membrane homogenates were stored at −80° C. until the day of assay where upon they were thawed and resuspended and polytronized in 15 mM Tris-HCl, 120 mM NaCl, 100 mM KCl, 25 mM CaCl2, 25 mM MgCl2 binding buffer at pH 7.4 to a final assay concentration of 20 μg protein/well.
Saturation isotherms were determined by addition of twelve [^3H]MPEP concentrations (0.04-100 nM) to these membranes (in a total volume of 200 μl) for 1 h at 4° C. Competition experiments were performed with a fixed concentration of [^3H]MPEP (2 nM), and IC50 values of test compounds evaluated using 11 concentrations (0.3-10,000 nM). Incubations were performed for 1 h at 4° C.
At the end of the incubation, membranes were filtered onto unifilter (96-well white microplate with bonded GF/C filter preincubated 1 h in 0.1% PEI in wash buffer, Packard Bio-Science, Meriden, Conn.) with a Filtermate 96 harvester (Packard BioScience) and washed 3 times with cold 50 mM Tris-HCl, pH 7.4 buffer. Nonspecific binding was measured in the presence of 10 μM MPEP. The radioactivity on the filter was counted (3 min) on a Packard Top-count microplate scintillation counter with quenching correction after addition of 45 μl of microscint 40 (Canberra Packard S. A., Zürich, Switzerland) and shaking for 20 min.
The inhibition (antagonists) curves were fitted with a four parameter logistic equation giving IC50, and Hill coefficient using iterative non linear curve fitting software (Xcel fit).
For binding experiments the Ki values of the compounds tested are given. The Ki value is defined by the following formula: Ki=IC50/[1+L/Kd] in which the IC50 values are those concentrations of the compounds tested which cause 50% inhibition of the competing radioligand ([^3H]MPEP). L is the concentration of radioligand used in the binding experiment and the Kd value of the radioligand is empirically determined for each batch of membranes prepared.
The Ki is the dissociation constant of the complex between target and ligand, obtained from inhibition or displacement. As for “6-Methyl-3-(1-methyl-1H-pyrazol-4-ylamino)-pyridine-2-carboxylic acid (5-fluoro-pyridin-2-yl)-amide [Example 96]”, the Ki turned out to be 57 nM. The value for `Cc1ccc(Nc2cncnc2)c(C(=O)Nc2cccc(Cl)c2)n1` [Example 2, 6-Methyl-3-(pyrimidin-5-ylamino)-pyridine-2-carboxylic acid (3-chloro-phenyl)-amide] was 30 nM. In the case of `Cc1ccc(Nc2cccnc2)c(C(=O)Nc2ccnc(Cl)c2)n1` [Example 4, 6-Methyl-3-(pyridin-3-ylamino)-pyridine-2-carboxylic acid (2-chloro-pyridin-4-yl)-amide], the Ki worked out at 42 nM.

On to `Cc1ccc(Nc2cccnc2)c(C(=O)Nc2ccc(F)cn2)n1` [Example 8, 6-Methyl-3-(pyridin-3-ylamino)-pyridine-2-carboxylic acid (5-fluoro-pyridin-2-yl)-amide], for which the Ki is 21 nM. The value for `Cc1csc(NC(=O)c2nc(C)ccc2Nc2cccnc2)n1` [Example 14, 6-Methyl-3-(pyridin-3-ylamino)-pyridine-2-carboxylic acid (4-methyl-thiazol-2-yl)-amide] was 28 nM. Regarding `Cc1ccc(Nc2cccnc2)c(C(=O)Nc2ccn(C)n2)n1` [Example 16, 6-Methyl-3-(pyridin-3-ylamino)-pyridine-2-carboxylic acid (1-methyl-1H-pyrazol-3-yl)-amide], the inhibitory constant (Ki) came out at 27 nM.

Take `Cc1ccc(Nc2cccnc2)c(C(=O)Nc2nc(C(F)(F)F)cs2)n1` [Example 18, 6-Methyl-3-(pyridin-3-ylamino)-pyridine-2-carboxylic acid (4-trifluoromethyl-thiazol-2-yl)-amide]: the Ki is 78 nM. The value for `Cc1cc(NC(=O)c2nc(C)ccc2Nc2cncc(C#N)c2)ccn1` [Example 22, 3-(5-Cyano-pyridin-3-ylamino)-6-methyl-pyridine-2-carboxylic acid (2-methyl-pyridin-4-yl)-amide] was 66 nM; that for `Cc1ccc(Nc2cncc(C(F)(F)F)c2)c(C(=O)Nc2ccn(C)n2)n1` [Example 51, 6-Methyl-3-(5-trifluoromethyl-pyridin-3-ylamino)-pyridine-2-carboxylic acid (1-methyl-1H-pyrazol-3-yl)-amide] was 82 nM; that for `Cc1ccc(Nc2cccc(F)c2)c(C(=O)Nc2ccc(F)c(C)n2)n1` [Example 54, 3-(3-Fluoro-phenylamino)-6-methyl-pyridine-2-carboxylic acid (5-fluoro-6-methyl-pyridin-2-yl)-amide] was 55 nM. Consider `Cc1ccc(Nc2cccc(C#N)c2)c(C(=O)Nc2nc(C(F)(F)F)cs2)n1` [Example 60, 3-(3-Cyano-phenylamino)-6-methyl-pyridine-2-carboxylic acid (4-trifluoromethyl-thiazol-2-yl)-amide], for which the Ki was determined as 367 nM. As to `Cc1ccc(Nc2ccnn2C)c(C(=O)Nc2csc(C)n2)n1` [Example 92, 6-Methyl-3-(2-methyl-2H-pyrazol-3-ylamino)-pyridine-2-carboxylic acid (2-methyl-thiazol-4-yl)-amide], the Ki turned out to be 10 nM. With `Cc1ccc(Nc2cc(C3CC3)nn2C)c(C(=O)Nc2ccc(F)c(C)n2)n1` [Example 103, 3-(5-Cyclopropyl-2-methyl-2H-pyrazol-3-ylamino)-6-methyl-pyridine-2-carboxylic acid (5-fluoro-6-methyl-pyridin-2-yl)-amide], the Ki came to 14 nM. On to `Cc1ccc(Nc2cncnc2)c(C(=O)Nc2ncc(C)s2)n1` [Example 106, 6-Methyl-3-(pyrimidin-5-ylamino)-pyridine-2-carboxylic acid (5-methyl-thiazol-2-yl)-amide], for which the Ki came out at 56 nM.
